{"source": "patent US20110280913A1", "about": "“Methods and Compositions for Delivering Therapeutic Agents in the Treatment of B-Cell Related Disorders” (THE OHIO STATE UNIVERSITY, priority 2008, published 2011)", "key": {"CLL cells": {"tested_on": "CLL cells", "assay": "ADCC, 4-hour 51Cr-release assay", "type": "cell-based, human", "description": "(§1) For ADCC experiments, CD56^+ and CD19^+ cells were negatively purified from whole blood obtained from either healthy volunteers or CLL subjects by magnetic-activated cell sorting according to the manufacturer's recommendations (MiniMACS; Miltenyi Biotec, Auburn, Calif.). The purity of enriched populations was always greater than 95% of the total yield as detected by CD19 and CD3 staining.\nADCC activity was determined by standard 4-hour ^51Cr-release assay. ^51Cr-labeled target cells (10^5 CLL cells/mL) were incubated with media alone or in the presence of various antibodies (10 μg/mL) at 37° C. for 30 minutes. Unbound antibody was washed off and the cells plated at 10^4 cells/well. Effector cells (natural killer [NK] cells from healthy donors or CLL subjects) were then added to the plates at indicated effector-to-target (E:T) ratios. After a 4-hour incubation, supernatants were removed and measured using a gamma counter. The percentage of specific cell lysis was determined by the equation: % lysis=100×(ER−SR)/(MR−SR), where ER, SR, and MR represent experimental, spontaneous, and maximum release, respectively. Data were normalized to the untreated control."}, "CD19": {"tested_on": "CD19", "assay": "Immunophenotyping (flow cytometry) of CD19 on CLL cells", "type": "cell-based, human", "details": "0.5 μM, vs vehicle", "description": "(§2) Immunophenotyping was performed to determine the percentage and mean fluorescence intensity of CD20, CD19, CD5, CD23, CD38, CD3, and CD52 on CLL cells relative to a specific isotype control. Cells (10^6) were washed in PBS, stained with fluorochrome-labeled antibodies at 4° C., then rinsed in PBS and analyzed by flow cytometry (EPICS-XL; Beckman Coulter, Fullerton, Calif.). A total of 10,000 events were collected and analyzed using Windows Multiple Document Interface for Flow Cytometry (WinMDI). CD20, CD19, CD3, CD5, CD23, and CD38 antibodies were obtained from BD Biosciences (San Jose, Calif.), and CD52 antibody was obtained from Serotec (Raleigh, N.C.)."}, "CD23": {"tested_on": "CD23", "assay": "Immunophenotyping (flow cytometry) of CD23 on CLL cells", "type": "cell-based, human", "details": "0.5 μM, 48 h, vs vehicle, n=6, P=0.001", "description": "as §2"}, "CD20 [1]": {"tested_on": "CD20", "assay": "Immunoblot of total CD20 protein", "type": "cell-based, human", "details": "48 and 72 hours, relative to vehicle control", "description": "Immunoblot assays were performed with the multiple antigen detection immunoblotting method as described previously.^23 Whole-cell lysates were prepared and stored in −80° C. Protein concentration was quantified by the bicinchoninic acid method (Pierce Chemical, Rockford, Ill.). Protein samples (50 μg) were separated by sodium dodecyl sulfate-polyacrylamide gel electrophoresis (12%) and transferred to 0.2-μm nitrocellulose membranes (Whatman Schleicher & Schuell, Keene, N.H.) and incubated with goat antihuman CD20 (Santa Cruz Biotechnology, Santa Cruz, Calif.) or rabbit antiactin (Cell Signaling Technology, Danvers, Mass.) antibodies. Horseradish peroxidase-conjugated goat anti-rabbit IgG (Bio-Rad, Hercules, Calif.) was used as secondary antibody Immune complexes were detected using chemiluminescent substrate (SuperSignal; Pierce Chemical)."}, "CD52": {"tested_on": "CD52", "assay": "Immunophenotyping (flow cytometry) of CD52 on CLL cells", "type": "cell-based, human", "details": "0.5 μM, vs vehicle, data not shown", "description": "as §2"}, "Raji cell line xenograft": {"tested_on": "Raji cell line xenograft", "details": "Raji xenograft mouse, lenalidomide alone; cited from earlier work"}, "NK cells": {"tested_on": "NK cells", "assay": "CD56 and CD16 surface expression on purified NK cells (flow)", "type": "cell-based, human", "details": "lenalidomide 72 hours", "description": "FIG. 4B: Lenalidomide treatment increases percentage of CD56+/[…] cells. Negatively selected NK cells were incubated with Lenalidomide (0.5 μM) or vehicle control. CD56 and CD16 surface expression was analyzed by flow after 72 h of treatment. The graphs show, respectively, percentage change CD56+/CD16+ (left panel, N=12, p<0.01) and CD56−/CD16+ (right panel, N=12, p<0.005) double positive cells.\nas §1"}, "[2]": {"tested_on": "B-cell lymphoma cell lines", "details": "cited from earlier work"}, "CD20 [3]": {"tested_on": "CD20", "assay": "Intracellular CD20 staining (flow cytometry)", "type": "cell-based, human", "description": "CLL cells were incubated with a molar excess of rituximab to saturate the binding of extracellular CD20. Cells were washed twice with PBS and then fixed and permeablilized using the Cytofix/Cytoperm Kit (BD Biosciences PharMingen, San Diego, Calif.) according to the manufacturer's recommendations. Cells were then incubated with CD20-phycoerythrin (PE) antibody, washed twice in PBS, and analyzed by flow cytometry. To ensure the specificity of the staining procedure, binding of IgG1-k isotype antibody was also measured."}, "CD20 mRNA": {"tested_on": "CD20 mRNA", "assay": "Real-time RT-PCR of CD20 mRNA in CLL cells", "type": "cell-based, human", "details": "24 and 48 hours, compared with vehicle control", "description": "RNA was extracted with TRIzol reagent (Invitrogen) according to the manufacturer's directions and converted to cDNA with the SuperScript First-Strand Synthesis System (Invitrogen). Real-time polymerase chain reaction was performed using custom-designed primers for CD20 (ID: Hs00544819_m1; Applied Biosystems, Foster City, Calif.) and an ABI Prism 7700 sequence detection system (Applied Biosystems). The expression of CD20 relative to an internal control gene was calculated by plotting the Ct (cycle number), and the average relative expression for each group was determined using the comparative method (2^−Ct).^24\nThe inventors herein then determined whether the mechanism by which lenalidomide down-regulates CD20 antigen was via decreased transcription. CD20 mRNA expression level was assessed by real-time reverse-transcribed polymerase chain reaction (RT-PCR) in lenalidomide- and vehicle-treated CLL cells at 24 and 48 hours."}}}
{"compound": "Nc1cccc2c1CN(C1CCC(=O)NC1=O)C2=O", "note": "(stereo not shown) [lenalidomide]", "values": [{"measurement": "rituximab-mediated ADCC", "setting": "CLL cells; cotreatment of autologous NK cells and primary CLL cells, 0.5 μM, 72 hours, vs NK-only controls, N=2, P=0.02", "result": "diminished"}, {"measurement": "rituximab-mediated ADCC", "setting": "CLL cells; lenalidomide-pretreated CLL B cells, allogeneic NK cells, N=5, P<0.05", "result": "decrease"}, {"measurement": "rituximab-mediated ADCC", "setting": "CLL cells; lenalidomide-pretreated CLL B cells, autologous NK cells, N=2, P<0.05", "result": "decrease"}, {"measurement": "rituximab-mediated ADCC against target CLL subject cells", "setting": "CLL cells; lenalidomide-treated NK cells from a healthy donor, N=4, P=0.009", "result": "overall enhancement"}, {"measurement": "CD19 expression on CLL cells", "setting": "CD19", "result": "no changes"}, {"measurement": "CD23 activation marker level on CLL cells", "setting": "CD23", "result": "increased levels"}, {"measurement": "total level of CD20 protein", "setting": "CD20 [1]", "result": "no variation"}, {"measurement": "CD52 expression on CLL cells", "setting": "CD52", "result": "no changes"}, {"measurement": "NK cell expansion", "setting": "Raji cell line xenograft", "result": "induced NK cell expansion"}, {"measurement": "tumor growth", "setting": "Raji cell line xenograft", "result": "failed to inhibit tumor growth"}, {"measurement": "percentage of CDC16+/CD56− cells", "setting": "NK cells; N=12, P<0.005 (vehicle 35% ±13%)", "result": "20% ±11%"}, {"measurement": "percentage of CD16+/CD56+ cells", "setting": "NK cells; N=12, P<0.01 (vehicle 18% ±10%)", "result": "31% ±14%"}, {"measurement": "CD20 surface antigen expression", "setting": "[2]", "result": "without affecting"}, {"measurement": "CLL subject samples with reduction of CD20 antigen surface expression", "setting": "CD20 [3]; after lenalidomide treatment", "result": "6 of 8"}, {"measurement": "intracellular CD20 fluorescence", "setting": "CD20 [3]; compared with vehicle-treated controls, P=0.006", "result": "increased intracellular fluorescence"}, {"measurement": "CD20 mRNA transcription", "setting": "CD20 mRNA", "result": "very modest increase"}]}
